# Laboratory results: PMC8073686, “Characterization of Subtype Selective Cannabinoid CB2 Receptor Agonists as Potential Anti-Inflammatory Agents” (Pharmaceuticals, 2021)
# Read-outs that look alike come from different tables or passages of the source.
# How the values were obtained:
# CB1 receptor [1] = molecular target: T1, CB1 receptor (Homo sapiens, UniProt P21554); set-up: method as in PMID 30951717; conditions: cited from earlier work
# T1 construct: expressed in transfected cells; host or cells: HEK293T cells (called 'HEK293 cells' in Results), calcium phosphate transfection, membrane preparation
# [2] = system: TNF-α mRNA in Jurkat cells; set-up: method as in PMID 33712283; conditions: concentration not given; cited from earlier work
# [3] = system: TNF-α production in Jurkat cells; set-up: method as in PMID 33712283; conditions: concentration not given; cited from earlier work
# CB2 [4] = molecular target: T2, CB2 (Homo sapiens, UniProt P34972); set-up: method as in PMID 30951717; conditions: stimulation of [35S]GTPγS binding; determined previously; cited from earlier work
# T2 construct: expressed in transfected cells; host or cells: HEK293T cells, calcium phosphate transfection, membrane preparation
# CB2 [5] = molecular target: T2, CB2; set-up: method as in PMID 30951717; conditions: competition with [3H]CP55,940; determined previously; cited from earlier work
# CB1 receptor [6] = molecular target: T1, CB1 receptor; assay: Competitive [3H]CP55,940 radioligand binding, membrane from CB1 expressing HEK293 cells
# Text: (§1) To evaluate binding affinity of ABK5 analogs that have a difference in the position of substituents in the N-phenyl ring (Figure 1), we performed competitive radiolabeled ligand binding assays using cell membrane from HEK293T cells transfected with human CB2 receptors. […] ABK5-1, ABK5-2, and ABK5-6 dose-dependently competed with [^3H]CP55,940 and decreased the specific binding of the radiolabeled agonist, which reflects the binding of test compounds to CB2. […] Therefore, ABK5-5 was not considered for further evaluation in this study. […] We also examined CB2 selectivity (versus CB1) of the three compounds by performing similar binding assays using membrane from CB1 expressing HEK293 cells instead of CB2 expressing cells. […] Therefore, ABK5-1 and 5-2 maintained the CB2 subtype selectivity of ABK5.
# (§2) In the experiment, 1 × 10^6 HEK293T cells were seeded in a 10-cm cell culture dish and cultured for 24 h. Cells were transfected with CB1 or CB2 using the calcium phosphate method. Approximately one day after transfection, cells were harvested and centrifuged at 4 °C for 5 min at 500× g. The pellet was washed with phosphate buffered saline (PBS) twice and resuspended in PBS containing 1% protease-inhibitor cocktail (Sigma-Aldrich, St. Louis, MO, USA) consisting of 104 mM 4-(2-aminoethyl) benzene sulfonyl fluoride hydrochloride (AEBSF), 80 μM apronitin, 4 mM bestatin, 1.64 mM E-64, 2 mM leupeptin, 1.5 mM pepstatin A. Then the cells were subjected to nitrogen cavitation under 750 psi for 5 min using a Parr cell disruption bomb. The lysate was centrifuged at 500× g for 10 min at 4 °C and the supernatant was spun at 116,000× g for 45 min at 4 °C. The pellet, consisting of the cell membrane expressing CB1 or CB2, was resuspended in TME buffer solution (25 mM Tris-HCl, 5 mM MgCl2, and 1 mM EDTA, pH 7.4) with 7% (w/v) sucrose/TME buffer. The concentration of the membrane protein was determined by the Bradford assay (Bradford, 1976).
# (§3) Membrane protein was mixed with 1 nM to 10 μM of the test compounds and 1 nM [^3H]CP55,940 (164.9 Ci/mmol; PerkinElmer life Sciences, Waltham, MA, USA), and TME buffer supplemented with 0.2% BSA was used to bring the total volume to 200 μL. [^3H]CP55,940 acts as tracer and agonists that bind the target receptor compete with [^3H]CP55,940. Samples were incubated for 1 h at 30 °C. Ten μM unlabeled CP55,940 was used to determine non-specific binding. Reactions were stopped by adding 5% BSA/TME buffer (w/v) and samples were filtered through a Brandel cell harvester using Whatman GF/C filter paper. Ultima Gold XR liquid scintillation cocktail (PerkinElmer Life Sciences, Waltham, MA, USA) was then added and vortexed. A Beckman Coulter 6500 liquid scintillation counter was used to measure the radioactivity of the samples.
# Results are presented as the mean ± standard deviation (S.D.). The ligand binding assays and the GTPγS binding assays were both carried out in duplicate for three independent experiments. The Ki values in the ligand binding assay were calculated using the Prism software (GraphPad Software Inc., San Diego, CA, USA), using IC50 values obtained from non-linear regression fitted to the one-site binding model. The Cheng-Prusoff equation [48], which is used for calculation of Ki value is shown below. (1) Ki=IC50/1+L/Kd
# CB2 [7] = molecular target: T2, CB2; assay: Competitive [3H]CP55,940 radioligand binding, CB2-transfected HEK293T cell membrane
# Text: as §1, §2
# as §3, with “Reactions were stopped by adding 5% BSA/TME buffer (w/v) and samples were filtered through a Brandel cell harvester using Whatman GF/C filter paper. Ultima Gold XR liquid scintillation cocktail (PerkinElmer Life Sciences, Waltham, MA, USA) was then added and vortexed.” left out
# Results are presented as the mean ± standard deviation (S.D.). […] The Ki values in the ligand binding assay were calculated using the Prism software (GraphPad Software Inc., San Diego, CA, USA), using IC50 values obtained from non-linear regression fitted to the one-site binding model. […]
# CB2 [8] = molecular target: T2, CB2; assay: [35S]GTPγS binding assay (G-protein coupling), CB2 containing HEK293T cell membrane; format: biochemical; conditions: stimulation of [35S]GTPγS binding; mean ± S.D.
# Procedure: We also examined if the compounds can induce G-protein coupling and act as CB2 agonists. Three compounds, ABK5-1, ABK5-2, and ABK5-6, were subjected to [^35S]GTPγS binding assays. Increasing concentrations, from 1 nM to 10 μM of the test compounds, were incubated with CB2 containing HEK293T cell membrane and [^35S]GTPγS, which binds to Gi/o in the membrane upon CB2 activation and G-protein coupling. All three compounds stimulated dose-dependent increases of specific [^35S]GTPγS binding (Figure 3).
# as §2
# GTPγS binding assay buffer ([…], pH 7.4, 3 mM MgCl2, 0.2 mM EGTA, and 100 mM NaCl) membrane protein, 1 nM to 10 μM of the test compounds, 0.1 nM [^35S] GTPγS (1250 Ci/mmol; PerkinElmer Life Sciences, Waltham, MA, USA), 0.1% fatty acid free BSA (w/v), 10 μM guanosine diphosphate (GDP) and GTPγS was incubated for 1 h at 30 °C with shaking. […] A Beckman Coulter 6500 liquid scintillation counter was used to measure the radioactivity of the samples. […]
# T2 sequence (P34972 whole entry): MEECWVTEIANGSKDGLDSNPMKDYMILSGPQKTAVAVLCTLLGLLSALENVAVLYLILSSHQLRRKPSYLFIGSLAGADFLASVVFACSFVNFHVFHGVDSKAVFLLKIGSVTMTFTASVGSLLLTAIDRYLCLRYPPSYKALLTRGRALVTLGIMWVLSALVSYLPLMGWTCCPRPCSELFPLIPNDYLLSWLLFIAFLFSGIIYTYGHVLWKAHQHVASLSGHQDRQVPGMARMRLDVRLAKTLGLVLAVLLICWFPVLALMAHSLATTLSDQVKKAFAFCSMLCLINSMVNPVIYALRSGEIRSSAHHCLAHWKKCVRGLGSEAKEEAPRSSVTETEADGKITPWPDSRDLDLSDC
# T1 sequence (P21554 whole entry): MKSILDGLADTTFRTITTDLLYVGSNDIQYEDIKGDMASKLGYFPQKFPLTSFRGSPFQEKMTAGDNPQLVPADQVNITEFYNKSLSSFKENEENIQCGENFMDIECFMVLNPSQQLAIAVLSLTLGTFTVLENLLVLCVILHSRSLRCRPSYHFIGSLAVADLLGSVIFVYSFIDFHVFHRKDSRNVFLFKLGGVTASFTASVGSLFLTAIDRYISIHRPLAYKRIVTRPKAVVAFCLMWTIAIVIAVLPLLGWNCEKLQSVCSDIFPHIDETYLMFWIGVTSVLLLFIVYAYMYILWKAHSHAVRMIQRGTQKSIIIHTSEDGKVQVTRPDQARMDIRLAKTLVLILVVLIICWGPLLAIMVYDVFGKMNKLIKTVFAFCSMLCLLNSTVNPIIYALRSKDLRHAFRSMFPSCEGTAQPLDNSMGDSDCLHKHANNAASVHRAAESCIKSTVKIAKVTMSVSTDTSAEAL
smiles,measurement,setting,value
"CCOC(=O)c1ccccc1NC(=O)CN(c1cccc(C)c1C)S(=O)(=O)c1ccccc1 [ABK5, ethyl 2(2-(N-(2,3-dimethylphenyl)phenylsulfonamido)acetamido)benzoate]","Ki CB1 (CP55,940)","CB1 receptor [1]; N.B. = no specific binding detected up to 10 μM, determined previously",N.B. ^c
same,CB1 binding: no binding detected up to,CB1 receptor [1],> 10 µM
same,decrease of TNF-α mRNA,[2],33%
same,decrease of TNF-α protein level,[3],30%
same,EC50,CB2 [4],4 ± 3 nM
same,Ki,CB2 [5],16 ± 14 nM
CCOC(=O)c1ccccc1NC(=O)CN(c1cc(C)ccc1C)S(=O)(=O)c1ccccc1 [ABK5-6],CB1 binding (in words),CB1 receptor [6],weak CB1 binding in the micromolar range
same,Ki,"CB1 receptor [6]; competition with [3H]CP55,940, N.B. = no specific binding detected up to 10 μM of test compounds",> 1000 nM
same,Ki,"CB2 [7]; competition with [3H]CP55,940, mean ± S.D.",14 ± 2 nM
same,EC50,CB2 [8],10 ± 5 nM
CCOC(=O)c1ccc(NC(=O)CN(c2cccc(C)c2C)S(=O)(=O)c2ccccc2)cc1 [ABK5-5],"CB2 binding, extent as % of total binding","CB2 [7]; data not shown, Ki not calculated",≤ 60%
